In patent US8952024B2, “Herbicidal pyrimidone derivatives” (E I du Pont de Nemours and Company, priority 2009, dated 2015):

How the values were obtained:
Format in all cases: in vivo
[1] = system: barnyardgrass (Echinochloa crus-galli); assay: Test B flooded paddy test; settings: for Plant response rating, Barnyardgrass: Flood (flooded paddy test), 13 to 15 days
Summary of the method: (§1)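 Flooded-pot test: water raised to 3 cm above soil when treating, compound put in the water, level unchanged thereafter. Plants were at 2 leaves. Readout after 13 to 15 days, visual, relative to controls; 0 signifies no effect and 100 complete control.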

[2] = system: umbrella sedge (Cyperus difformis); assay: Test B flooded paddy test; settings: for Plant response rating, Sedge, Umbrella: Flood (flooded paddy test), 13 to 15 days
Summary of the method: as §1

[3] = system: ducksalad (Heteranthera limosa); assay: Test B flooded paddy test; settings: for Plant response rating, Ducksalad: Flood (flooded paddy test), 13 to 15 days
Summary of the method: as §1

rice (Oryza sativa) = assay: Test B flooded paddy test; settings: for Plant response rating, Rice: Flood (flooded paddy test), 13 to 15 days
Summary of the method: as §1

[4] = system: Surinam grass (Brachiaria decumbens); assay: Test B pre-/postemergence plant response
From the text: (§2) Seeds of plant species selected from blackgrass (Alopecurus myosuroides), downy bromegrass (Bromus tectorum), green foxtail (Setaria viridis), Italian ryegrass (Lolium multiflorum), wheat (Triticum aestivum), wild oat (Avena fatua), deadnettle (henbit deadnettle, Lamium amplexicaule), galium (catchweed bedstraw, Galium aparine), bermudagrass (Cynodon dactylon), Surinam grass (Brachiaria decumbens), cocklebur (Xanthium strumarium), corn (Zea mays), large crabgrass (Digitaria sanguinalis), woolly cupgrass (Eriochloa villosa), giant foxtail (Setaria faberii), goosegrass (Eleusine indica), johnsongrass (Sorghum halepense), kochia (Kochia scoparia), lambsquarters (Chenopodium album), morningglory (Ipomoea coccinea), nightshade (eastern black nightshade, Solanum ptycanthum), yellow nutsedge (Cyperus esculentus), pigweed (Amaranthus retroflexus), ragweed (common ragweed, Ambrosia elatior), Russian thistle (Salsola kali), soybean (Glycine max), sunflower (common oilseed sunflower, Helianthus annuus) and velvetleaf (Abutilon theophrasti) were planted into a blend of loam soil and sand and treated preemergence with test compounds formulated in a non-phytotoxic solvent mixture which included a surfactant.
(§3) At the same time, plants selected from these crop and weed species and also winter barley (Hordeum vulgare), canarygrass (Phalaris minor), chickweed (Stellaria media) and windgrass (Apera spica-venti) were planted in pots containing Redi-Earth® planting medium (Scotts Company, 14111 Scottslawn Road, Marysville, Ohio 43041) comprising spaghnum peat moss, vermiculite, wetting agent and starter nutrients and treated with postemergence applications of some of the test chemicals formulated in the same manner. Plants ranged in height from 2 to 18 cm (1- to 4-leaf stage) for postemergence treatments.
(§4) Treated plants and controls were maintained in a greenhouse for 13 to 15 days, after which time all treated plants were visually evaluated and compared to controls. Plant response ratings, summarized in Table B, are based on a scale of 0 to 100 where 0 is no effect and 100 is complete control. A dash (-) response means no test result.

[5] = system: blackgrass (Alopecurus myosuroides); assay: Test B pre-/postemergence plant response; settings: Postemergence
From the text: as §2, §3, §4

[6] = system: Italian ryegrass (Lolium multiflorum); assay: Test B pre-/postemergence plant response
From the text: as §2, §3, §4

soybean (Glycine max) = assay: Test B pre-/postemergence plant response
From the text: as §2, §3, §4

[7] = system: ragweed (common ragweed, Ambrosia elatior); assay: Test B pre-/postemergence plant response
From the text: as §2, §3, §4

corn (Zea mays) = assay: Test B pre-/postemergence plant response; settings: Postemergence
From the text: as §2, §3, §4

[8] = system: bermudagrass (Cynodon dactylon); assay: Test B pre-/postemergence plant response; settings: Postemergence
From the text: as §2, §3, §4

[9] = system: cocklebur (Xanthium strumarium); assay: Test B pre-/postemergence plant response; settings: Postemergence
From the text: as §2, §3, §4

[10] = system: morningglory (Ipomoea coccinea); assay: Test B pre-/postemergence plant response; settings: Postemergence
From the text: as §2, §3, §4

[11] = 250 g ai/ha, flooded paddy test, visual rating on 0 to 100 scale (0 no effect, 100 complete control) after 13 to 15 days
[12] = 31 g ai/ha, scale of 0 to 100 where 0 is no effect and 100 is complete control
[13] = 62 g ai/ha, scale 0 to 100, 0 is no effect, 100 is complete control
[14] = 125 g ai/ha, scale 0 to 100, 0 is no effect, 100 is complete control
[15] = Postemergence, 31 g ai/ha, scale 0 to 100 (0 no effect, 100 complete control)
[16] = Postemergence, 62 g ai/ha, scale 0 (no effect) to 100 (complete control), 13 to 15 days
[17] = Postemergence, 125 g ai/ha, visual rating after 13 to 15 days, scale 0 (no effect) to 100 (complete control)
[18] = Postemergence, 250 g ai/ha, scale 0 to 100
[19] = Preemergence, 0 is no effect, 100 is complete control, rated after 13 to 15 days, application rate of this section not shown
[20] = 31 g ai/ha, scale 0 to 100 (0 no effect, 100 complete control)
[21] = 62 g ai/ha, scale 0 (no effect) to 100 (complete control), 13 to 15 days
[22] = 125 g ai/ha, visual rating after 13 to 15 days, scale 0 (no effect) to 100 (complete control)

In the case of “5-[(2-hydroxy-6-oxo-1-cyclohexen-1-yl)carbonyl]-2,3-diphenyl-4(3H)-pyrimidinone [Compound 2]”, the “Plant response rating, Flood, Barnyardgrass” value [1, 11] is reported as 0, the “Plant response rating, Barnyardgrass” value [1, 12] is reported as 0 and the “Plant response rating, Barnyardgrass” value [1, 13] is reported as 0. The “Plant response rating, Barnyardgrass” value [1, 14] was 0, the “Plant response rating, Flood, Sedge, Umbrella” value [2, 11] was 0 and the “Plant response rating, Sedge, Umbrella” value [2, 12] was 0. The “Plant response rating, Sedge, Umbrella” value [2, 13] was 0, the “Plant response rating, Sedge, Umbrella” value [2, 14] was 0 and the “Plant response rating, Flood, Ducksalad” value [3, 11] was 0. The “Plant response rating, Ducksalad” value [3, 12] was 0, the “Plant response rating, Ducksalad” value [3, 13] was 0 and the “Plant response rating, Ducksalad” value [3, 14] was 0. For the same substance, the “Plant response rating, Flood, Rice” value (rice (Oryza sativa); [11]) was 0, the “Plant response rating, Rice” value (rice (Oryza sativa); [12]) was 0 and the “Plant response rating, Rice” value (rice (Oryza sativa); [13]) was 0. The “Plant response rating, Rice” value (rice (Oryza sativa); [14]) was 0, the “Plant response rating, Surinam Grass” value [4, 15] was 0 and the “Plant response rating, Surinam Grass” value [4, 16] was 0. The “Plant response rating, Surinam Grass” value [4, 17] was 10, the “Surinam Grass plant response rating” value [4, 18] was 20 and the “Surinam Grass plant response rating (0 to 100 scale)” value [4, 19] was 0. For the same substance, the “Plant response rating, Blackgrass” value [5, 20] was 0, the “Plant response rating, Blackgrass” value [5, 21] was 0 and the “Plant response rating, Blackgrass” value [5, 22] was 5. For the same substance, the “Blackgrass plant response rating” value ([5]; 250 g ai/ha, scale 0 to 100) was 5, the “Plant response rating, Ryegrass, Italian” value [6, 15] was 0 and the “Plant response rating, Ryegrass, Italian” value [6, 16] was 0. For the same substance, the “Plant response rating, Ryegrass, Italian” value [6, 17] was 0, the “Ryegrass, Italian plant response rating” value [6, 18] was 0 and the “Ryegrass, Italian plant response rating (0 to 100 scale)” value [6, 19] was 0. The “Plant response rating, Soybean” value (soybean (Glycine max); [15]) was 50, the “Plant response rating, Soybean” value (soybean (Glycine max); [16]) was 65 and the “Plant response rating, Soybean” value (soybean (Glycine max); [17]) was 70. For the same substance, the “Soybean plant response rating” value (soybean (Glycine max); [18]) was 80, the “Soybean plant response rating (0 to 100 scale)” value (soybean (Glycine max); [19]) was 0 and the “Plant response rating, Ragweed” value [7, 15] was 60. For the same substance, the “Plant response rating, Ragweed” value [7, 16] was 70, the “Plant response rating, Ragweed” value [7, 17] was 70 and the “Ragweed plant response rating” value [7, 18] was 75. For the same substance, the “Ragweed plant response rating (0 to 100 scale)” value [7, 19] was 25, the “Plant response rating, Corn” value (corn (Zea mays); [20]) was 0 and the “Plant response rating, Corn” value (corn (Zea mays); [21]) was 0. The “Plant response rating, Corn” value (corn (Zea mays); [22]) was 0, the “Corn plant response rating” value (corn (Zea mays); 250 g ai/ha, scale 0 to 100) was 0 and the “Plant response rating, Bermudagrass” value [8, 20] was 40. The “Plant response rating, Bermudagrass” value [8, 21] was 50, the “Plant response rating, Bermudagrass” value ([8]; 125 g ai/ha, scale 0 to 100 (0 no effect, 100 complete control), 13 to 15 days) was 60 and the “Bermudagrass plant response rating” value ([8]; 250 g ai/ha, scale 0 to 100) was 65. For the same substance, the “Plant response rating, Cocklebur” value [9, 20] was 65, the “Plant response rating, Cocklebur” value [9, 21] was 65 and the “Plant response rating, Cocklebur” value [9, 22] was 70. The “Cocklebur plant response rating” value ([9]; 250 g ai/ha, scale 0 to 100) was 85, the “Plant response rating, Morningglory” value [10, 20] was 0 and the “Plant response rating, Morningglory” value [10, 21] was 20. The “Plant response rating, Morningglory” value [10, 22] was 45 and the “Morningglory plant response rating” value ([10]; 250 g ai/ha, scale 0 to 100) was 65.
